What all share (assay type): cell-based, human
In data set [1] the test system is Mia-PACA, H23 and H358 cells. The experiment in a line: Cell proliferation over 5 days (CellTiter Glow). The conditions noted are these: Mia-PACA, H23, H358 vs KRAS WT HT29 or HS-68 and PANC1 cells. The method, then:
(§1) Transfection protocol. The following protocols are reported for 24/48/96 well plate format transfection. Cells should be trypsinized and seeded a day prior transfection Cells were cultured in Dulbecco's Modified Eagle's Medium (DMEM), supplemented with 2 mM glutamine, 1% antibiotics (streptomycin 10,000 μg/mL, penicillin, 10,000 IU/mL) and 10% (w/v) foetal calf serum (FCS), at 37° C. in a humidified atmosphere containing 5% CO2. 96 well plates seeded with 50,000 cells, the day prior transfection, grown to 60-80% confluence and set up to be at around 70% confluence at the day of transfection. Before transfection, cells are washed twice with DMEM (without FBS and pen/strep) (100 μl/well). Cells were then overlaid with 25 μl of complex solution, mixed gently and incubated for 10 min at 37° C.+5% CO2. 50 μl of fresh DMEM (without FBS and Antibiotics) was added and cells were incubated for 2 h at 37° C.+5% CO2 (time of exposure can be adjusted based on sensitivity of the cells). 250 μL of DMEM (containing 10% FCS and 1% antibiotics) were then added without removing the overlay of ADGN peptide/mRNA complexes. Cells were returned to the incubator (37° C., 5% CO2) and analyzed 48 hours to 72 hours post transfection.
(§2) Eight different gRNAs targeting KRAS 34G>T mutant G12C (gRNA34T1, gRNA34T2, gRNA34T3, gRNA34T4, gRNA34T5, gRNA34T6, gRNA34T7 and gRNA34T8) were evaluated on MIA-PACA, H23, H358, H29 and PANC1 cells. Cas9 mRNA (0.1 μg) and gRNA (0.2 μg) were associated with ADGN peptide at molar ratio 20/1 (peptide/nucleic acid). MIA-PACA, H23, H358, PANC1 and HT29 cells were cultured in 48 well plate format and treated with free mRNACas9-gRNA, or ADGN/mRNACas9:gRNA complex. Indel frequencies at the endogenous target sequences was evaluated 72 hours after transfection by either T7E1 method or deep sequencing. Cell proliferation was analyzed over a period of 5 days using CellTiter Glow kits on GlowMax (Promega).
Background: ATP-based viability assays read luminescence as a measure of living cells.

The next data set concerns KRAS 34G>T mutant G12C. The experiment in a line: Indel frequencies at the endogenous target sequences (T7E1 / deep sequencing) after ADGN/Cas9 mRNA/gRNA transfection. The settings on record: for indel frequencies: deep sequencing, 72 hours after transfection, Cas9 mRNA 0.1 μg, gRNA 0.2 μg. As for the experimental part:
(§3) Complex formation with mRNA:gRNA: ADGN peptide/mRNA/gRNA particles were prepared at a 20:1:1 molar ratio. ADGN/Cas9mRNA/sgRNA complexes were prepared at a 20/1/1 molar ratio with 0.5 μg mRNA: 1.5 μg sgRNA and 5% Glucose or DMEM (example for 96 well plates). […] Premixed Cas9 mRNA/gRNA were prepared in sterile water at room temperature in a glass vial (1-4 ml). ADGN-peptide solution was added dropwise (1 drop/sec) under magnetic agitation at 400 rpm to obtain a 1:2 ratio, and incubated for 30 min at room temperature or 37° C. Just before transfection, 150 μl Glucose or DMEM was added and the solution was mixed under magnetic agitation at 400 rpm for 1 minute. Then the solution was incubated for 5 min at 37° C. Then the complexes was ready for cell transfection or IV administration. Prior to IV administration, complexes were diluted in sucrose 5% solution.
as §1, §2
(§4) In order to confirm the specificity of sgRNAs targeting G12V, G12C or G12D KRAS mutation, gRNA35T3 targeting G12V, gRNA34T6 targeting G12C, and gRNA35A5 targeting G12D were evaluated on a large panel of cancer cells harboring different KRAS mutations including SW403, SW480, PANC1, PK-45H, PK-1, MIA-PACA, H23, H358, HT-29, HS-68 and LS513. Cas9 mRNA (0.2 μg) and gRNA (0.4 μg) were associated with ADGN peptide at molar ratio 20/1 (peptide/nucleic acid). Cells were cultured in 48 well plate format and treated with free mRNACas9-gRNA, or ADGN/mRNACas9:gRNA complex. Indel frequencies at the endogenous target sequences was evaluated 72 hours after transfection by either T7E1 method and cell proliferation was analyzed over a period of 5 days using CellTiter Glow kits on GlowMax (Promega).

Another data set has as its system SW403 and SW480 cells. Briefly: Cell proliferation over 5 days (CellTiter Glow). The conditions noted are these: SW480 and SW403 cells vs HT29 cells harboring KRAS WT. As for the experimental part: as §1
(§5) Nine different gRNAs targeting KRAS 35G>T mutant G12V (gRNA35T1, gRNA35T2, gRNA35T3, gRNA35T4, gRNA35T5, gRNA35T6, gRNA35T7, gRNA35T8 and gRNA35T9 (see FIG. 18)) were evaluated on SW403 and SW480 cancer cells harboring G12V KRAS mutation. Cas9 mRNA (0.15 μg) and gRNA (0.2 μg) were associated with ADGN-peptides as reported in experimental procedure. SW403, SW480 and HT-29 cells were cultured in 48 well plate format and treated with free mRNACas9-gRNA, or ADGN-100/mRNACas9:gRNA complex. Indel frequencies at the endogenous target sequences was evaluated 72 hours after transfection by either T7E1 method and by deep sequencing. Cell proliferation was analyzed over a period of 5 days using CellTiter Glow kits on GlowMax (Promega).

The next data set concerns KRAS 35G>T mutant G12V. Briefly: Indel frequencies at the endogenous target sequences (T7E1 / deep sequencing) after ADGN/Cas9 mRNA/gRNA transfection. The settings on record: for indel editing and disruption of G12V mutant KRAS (FIG. 1A): SW403, SW480 vs wild type KRAS HT29 cells, T7E1; for indel frequencies: deep sequencing, 72 hours after transfection, Cas9 mRNA 0.15 μg, gRNA 0.2 μg, ADGN-100. The method, then: as §3, §1, §5, §4

For a further data set, the system named is KRAS 35G>A mutant G12D. Described as above. The conditions noted are these: for disruption of G12D mutant KRAS (FIG. 2A): G12D cancer cells vs wild type KRAS cells (HT29 or HS-68); for indel frequencies: deep sequencing, 72 hours after transfection, Cas9 mRNA 0.1 μg, gRNA 0.2 μg. The method, then: as §3, §1
(§6) Nine different gRNAs targeting KRAS 35G>A mutant G12D (gRNA35A1, gRNA35A2, gRNA35A3, gRNA35A4, gRNA35A5, gRNA35A6; gRNA35A7, gRNA35A8, gRNA35A9) were evaluated on LS513, Panc1, PK-45H, and PK1 cancer cells harboring G12D KRAS mutation. Cas9 mRNA (0.1 μg) and gRNA (0.2 μg) were associated with ADGN-peptide at molar ratio 20/1 (peptide/nucleic acid). LS513, Panc1, PK-45H, PK1, HS-68 and HT-29 cells were cultured in 48 well plate format and treated with free mRNACas9-gRNA, or ADGN/mRNACas9:gRNA complex. Indel frequencies at the endogenous target sequences was evaluated 72 hours after transfection by either T7E1 method or deep sequencing. Cell proliferation was analyzed over a period of 5 days using CellTiter Glow kits on GlowMax (Promega).
as §4

In data set [2] the test system is PANC1, PK1, LS513 and PK-45H cells. The experiment in a line: Cell proliferation over 5 days (CellTiter Glow). The conditions noted are these: PANC1, PK1, LS513, PK-45H vs HT29 or HS-68 cells harboring KRAS WT. As for the experimental part:
as §1, §6

In another data set the test system is wild type KRAS. The experiment in a line: Indel frequencies at the endogenous target sequences (T7E1 / deep sequencing) after ADGN/Cas9 mRNA/gRNA transfection. The settings on record: for indel frequencies: deep sequencing, 72 hours after transfection, Cas9 mRNA 0.1 μg, gRNA 0.2 μg. As for the experimental part: as §3, §1, §5, §6
Where [3] appears, read: SW403 cells (heterozygous 35G>T).

Experimental findings from US20230167437A1, “COMPOSITIONS FOR TREATING CANCER WITH KRAS MUTATIONS AND USES THEREOF” (Aadigen, LLC, priority 2020, published 2023) are described below.

On to “GTT GGA GCT TGT GGC GT (guide GTTGGAGCTTGTGGCGT; chemistry not given here) [gRNA34T3, sgRNA target KRAS G12C mutation (34G>T); PAM AGG]”, for which, in data set [1], the “inhibition of proliferation or survival (FIG. 3B)” value is “specifically inhibit proliferation or survival of Mia-PACA, H23 and H358 cells”. Moreover, the indel frequencies in the data set with KRAS 34G>T mutant G12C (H23 cells) was 48%; in the data set on KRAS 34G>T mutant G12C (H358 cells) it was 37%; in the data set on KRAS 34G>T mutant G12C (Mia-PACA cells), 51%. Further, the “indel editing and disruption of G12C mutant KRAS (FIG. 3A)” value in the data set with KRAS 34G>T mutant G12C (Mia-PACA, H23, H358 vs HT29 and PANC1 cells) is “induced indel editing and efficient disruption of G12C mutant KRAS”.

On to “GTAGTTGGAGCTGTTGGCGT (guide GTAGTTGGAGCTGTTGGCGT; chemistry not given here) [gRNA35T8, sgRNA target KRAS G12V mutation (c.35G>T); PAM AGG]”, for which, in the data set on SW403 and SW480 cells, the “inhibition of proliferation or survival (FIG. 1B)” value (shortened to “inhibition … (FIG. 1B)”) was “specifically inhibit proliferation or survival of SW480 and SW403 cells”. Besides, the “indel editing and disruption of G12V mutant KRAS (FIG. 1A)” value (from here on “indel editing and disruption … (FIG. 1A)”) in the data set on KRAS 35G>T mutant G12V was “specifically induced indel editing and efficient disruption”. Moreover, the indel frequencies in the data set on KRAS 35G>T mutant G12V (setting [3]) was found to be 40%; in the data set on KRAS 35G>T mutant G12V (SW480 cells (homozygous 35G>T)), 51%.

For the sequence “GTT GGA GCT GAT GGC GT (guide GTTGGAGCTGATGGCGT; chemistry not given here) [gRNA35A6, sgRNA target KRAS G12D mutation (35G>A); PAM AGG]”, the “disruption of G12D mutant KRAS (FIG. 2A)” value in the data set on KRAS 35G>A mutant G12D was “induced efficient disruption of G12D mutant KRAS”. Moreover, the indel frequencies was determined as 32 ± 5% with KRAS 35G>A mutant G12D (LS513 cells); 60 ± 2% in the data set on KRAS 35G>A mutant G12D (PANC1 cells); 37 ± 0.4% with KRAS 35G>A mutant G12D (PK1 cells); 48 ± 1% in the data set with KRAS 35G>A mutant G12D (PK-45H cells); 2 ± 1% in the data set on wild type KRAS (HS68 cells (WT KRAS)); 5 ± 1% in the data set on wild type KRAS (HT-29 cells (WT KRAS)). The “inhibition of proliferation or survival (FIG. 2B)” value (“inhibition … (FIG. 2B)” for short) in data set [2] was “specifically inhibit proliferation or survival of PANC1, PK1, LS513 and PK-45H cells”.

For the sequence “GTT GGA GCT GTT GGC GT (guide GTTGGAGCTGTTGGCGT; chemistry not given here) [gRNA35T6, sgRNA target KRAS G12V mutation (c.35G>T); PAM AGG]”, in the data set with SW403 and SW480 cells, the “inhibition … (FIG. 1B)” value is “specifically inhibit proliferation or survival of SW480 and SW403 cells”. Further, the “indel editing and disruption … (FIG. 1A)” value with KRAS 35G>T mutant G12V was “specifically induced indel editing and efficient disruption”. Besides, the indel frequencies is listed as 18% in the data set with KRAS 35G>T mutant G12V (setting [3]) and 39% in the data set with KRAS 35G>T mutant G12V (SW480 cells (homozygous 35G>T)).

On to “GGTAGTTGGAGCTGATGGCG (guide GGTAGTTGGAGCTGATGGCG; chemistry not given here) [gRNA35A2, sgRNA target KRAS G12D mutation (35G>A); PAM TAG]”, for which the “disruption of G12D mutant KRAS (FIG. 2A)” value with KRAS 35G>A mutant G12D was “induced efficient disruption of G12D mutant KRAS”. For the same sequence, the indel frequencies in the data set on KRAS 35G>A mutant G12D (LS513 cells) is listed as 31 ± 2%; in the data set with KRAS 35G>A mutant G12D (PANC1 cells), 58 ± 4%; with KRAS 35G>A mutant G12D (PK1 cells), 48 ± 2%; in the data set with KRAS 35G>A mutant G12D (PK-45H cells), 52 ± 5%; in the data set on wild type KRAS (HS68 cells (WT KRAS)), 6 ± 2%; in the data set with wild type KRAS (HT-29 cells (WT KRAS)), 2 ± 1%. Besides, the “inhibition … (FIG. 2B)” value in data set [2] is “specifically inhibit proliferation or survival of PANC1, PK1, LS513 and PK-45H cells”.

As for “CTTGTGGTAGTTGGAGCTGA (guide CTTGTGGTAGTTGGAGCTGA; chemistry not given here) [gRNA35A1, sgRNA target KRAS G12D mutation (35G>A); PAM TGG]”, the indel frequencies with KRAS 35G>A mutant G12D (LS513 cells) worked out at 17 ± 2%; in the data set with KRAS 35G>A mutant G12D (PANC1 cells) it was 32 ± 2%; in the data set on KRAS 35G>A mutant G12D (PK1 cells), 12 ± 1%; with KRAS 35G>A mutant G12D (PK-45H cells), 15 ± 0.8%; in the data set on wild type KRAS (HS68 cells (WT KRAS)), 8 ± 1%; in the data set with wild type KRAS (HT-29 cells (WT KRAS)), 10 ± 1%. In data set [2], the “inhibition … (FIG. 2B)” value was “specifically inhibit proliferation or survival of PANC1, PK1, LS513 and PK-45H cells”. Besides, the “effect on wild type KRAS cells” value in the data set with wild type KRAS (HT-29 and HS-68 cells) is on record as “also affected wild type KRAS cells”.

For the sequence “TGGTAGTTGGAGCTGTTGGCGT (guide TGGTAGTTGGAGCTGTTGGCGT; chemistry not given here) [gRNA35T1, sgRNA target KRAS G12V mutation (c.35G>T); PAM AGG]”, the “inhibition … (FIG. 1B)” value in the data set on SW403 and SW480 cells was “specifically inhibit proliferation or survival of SW480 and SW403 cells”. Further, in the data set on KRAS 35G>T mutant G12V, the “indel editing and disruption … (FIG. 1A)” value was “specifically induced indel editing and efficient disruption”. For the same sequence, the indel frequencies in the data set on KRAS 35G>T mutant G12V (setting [3]) is 35%; in the data set on KRAS 35G>T mutant G12V (SW480 cells (homozygous 35G>T)), 57%.
